Reference: US20150174059A1, “ORAL CARE” (University of Pretoria, priority 2012, published 2015)
Where a name gives a salt, the structure may show the parent alone. Read-outs that look alike come from different tables or passages of the source. Marks after values point to notes of the source that are not given here. Numbered stars: 1 amine (or outer) side, 2 acyl side, 3 side chain; on linkers, the order of the positions; unused ones are H or OH. Bridge positions count the residues as written; N and C are the ends. Square brackets hold non-standard residues; d marks the D form. Peptide text beside a SMILES is read from it. I, II: the chains in the order shown. Actinocin(9to1) = Cc1c2oc3c(C)ccc(C(=O)[*:1])c3nc-2c(C(=O)[*:2])c(N)c1=O; NMeV = CN[C@H](C(=O)O)C(C)C; Sar = CNCC(=O)O

Key:
[1] = test system: Actinomyces israelii (ATCC 10049); assay: Microdilution MIC/MBC against Actinomyces israelii; format: cell-based; conditions: for MBC / MIC: ATCC10049
Experimental: (§1) The microorganisms used in this study included Actinomyces israelii (ATCC 10049), Prevotella intermedia (ATCC 25611), Streptococcus mutans (ATCC 25175), Candia albicans (ATCC 10231) and a strain of Candida albicans resistant to polyenes and azoles (1051604). The bacteria were grown on Casein-peptone Soymeal-peptone Agar medium (CASO) (Merck Chemicals (Pty) Ltd Wadeville, South Africa) under anaerobic conditions in an anaerobic jar with Anaerocult® A (Merck KGaA Darmstadt, Germany), at 37° C. for 72 hours. Actinomyces israelii and S. mutans had CASO agar enriched with 1% sucrose (Merck Chemicals (Pty) Ltd Wadeville, South Africa). The drug susceptible and drug resistant strains of C. albicans were grown on Sabouraud Dextrose 4% Agar (SDA) (Merck Chemicals (Pty) Ltd Wadeville, South Africa), at 37° C. for 72 hours. Sub-culturing was done every second week. Inocula were prepared by suspending bacterial test organisms in their respective broths until turbidity was compatible with McFarland Standard 1 (Merck Chemicals (Pty) Ltd Wadeville, South Africa). Yeast test organisms were suspended in sterile distilled water until turbidity was compatible with McFarland Standard 1 (McFarland, 1907).
(§2) The microdilution technique using 96-well micro-plates, as described by Eloff (1998) was used to obtain the MIC and MBC values of the crude extracts against the microorganisms under study. The extracts, dissolved in 10% dimethyl sulphoxide (DMSO) (Merck Chemicals (Pty) Ltd), were serially diluted in broth (enriched for A. israelii and S. mutans) for the bacteria and sterile water for the Candida species; in the 96-well plate adding 48 hour old microorganisms grown at 37° C. The final concentration of extracts ranged from 12.5-0.10 mg/ml and the positive control, 5% chlorhexidine gluconate (CHX) (Dental Warehouse, Sandton, South Africa), ranged from 12.5-3.8×10^−4 mg/ml. Amphotericin B (Davis Diagnostics, Gauteng) an established antifungal drug, ranging from 0.2 mg/ml to 1.5×10^−3 mg/ml, was included for the Candida assays. […] Actinomyces israelii and S. mutans were incubated at 37° C., under anaerobic conditions, for 24 hours; P. intermedia was incubated at 37° C., under anaerobic conditions, for 48 hours; and C. albicans was incubated at 37° C. with p-iodonitrotetrazolium violet (INT) (Sigma-Aldrich, South Africa) already added, under moist aerobic conditions, for 24 hours.
(§3) To indicate bacterial growth, 50 μl of (0.2 mg/ml) INT, was added to micro-plate wells and incubated at 37° C., under anaerobic conditions, for 20-60 minutes until a red colour developed. The MIC was defined as the lowest concentration that inhibited the colour change of INT. […] These suspensions were reincubated at 37° C. for 28 hours (48 hours for P. intermedia), under anaerobic conditions. The MBC was determined as the lowest concentration of extract which inhibited 100% growth of microorganisms (Cohen et al., 1998).

HEp-2 cells = assay: Cytotoxicity, XTT method, HEp-2 cells; format: cell-based; conditions: for CC50: Homo sapiens, 72 h, read-out: 50% inhibition of cell growth IC50 + S.D.
Experimental: (§4) Microtitre plates with Vero and HEp-2 cells (Highveld Biological, Gauteng) were used for testing the four best ethanol extracts for cytotoxicity following the method of Basson (2005). Cytotoxicity was measured by the XTT (Sodium 3′-[1-(phenyl amino-carbonyl)-3,4-tetrazolim]-bis-[4 methoxy-6-nitro]benzene sulfonic acid hydrate) method using the cell proliferation kit II (Roche Diagnostics GmbH). A hundred microliters of Vero and HEp-2 cells (1×10^5 ml) were seeded onto micro-plates and incubated for 24 hrs to allow the cells to attach to the bottom of the plate. Dilution series were made of the extracts and the various concentrations (400-3.1 μg/ml) were added to the micro-plate and incubated for 72 hours. The XTT reagents were added to a final concentration of 0.3 mg/ml and the cells were incubated for one to two hours. The positive drug controls Doxorubicin HCl (Sigma-Aldrich, South Africa) and Actinomycin D (Sigma-Aldrich, South Africa), at concentration ranges of 0.78-0.01 μg/ml, were included in the assay. After incubation the absorbance of the colour was spectrophotometrically quantified using an enzyme-linked immunosorbent assay (ELISA) plate reader (BIO-TEK Power-Wave XS, Weltevreden Park, South Africa), which measured the optical density at 490 nm with a reference wavelength of 690 nm. The assay was carried out in triplicate.

[2] = test system: Candida albicans (ATCC 10231); assay: Microdilution MIC/MBC against Candida albicans; format: cell-based
Experimental: as §1
The microdilution technique using 96-well micro-plates, as described by Eloff (1998) was used to obtain the MIC and MBC values of the crude extracts against the microorganisms under study. The extracts, dissolved in 10% dimethyl sulphoxide (DMSO) (Merck Chemicals (Pty) Ltd), were serially diluted in broth (enriched for A. israelii and S. mutans) for the bacteria and sterile water for the Candida species; in the 96-well plate adding 48 hour old microorganisms grown at 37° C. The final concentration of extracts ranged from 12.5-0.10 mg/ml and the positive control, 5% chlorhexidine gluconate (CHX) (Dental Warehouse, Sandton, South Africa), ranged from 12.5-3.8×10^−4 mg/ml. Amphotericin B (Davis Diagnostics, Gauteng) an established antifungal drug, ranging from 0.2 mg/ml to 1.5×10^−3 mg/ml, was included for the Candida assays. […]

[3] = test system: Candida albicans resistant to polyenes and azoles (1051604); assay: Microdilution MIC/MBC against polyene and azole resistant C. albicans; format: cell-based; conditions: Yeast
Experimental: as §1, §2
as §3, with “The MBC was determined as the lowest concentration of extract which inhibited 100% growth of microorganisms (Cohen et al., 1998).” left out

DPPH antioxidant assay = format: biochemical; conditions: single component
Experimental: DPPH (2,2-diphenyl-1-picrylhydrazyl hydrate) is a stable free radical with an unpaired valence electron at a nitrogen atom forming a bridge. The free radical can initiate a chain reaction which causes the removal of an electron from another molecule to complete its own orbital. This free valence electron forms the basis of the DPPH assay as samples are tested to determine the scavenging capability of this DPPH radical.
A modified antioxidant assay was used (du Toit et al., 2001). A 2% stock solution of M. piperita and M. alternifolia, a 2 mg/ml stock solution of ascorbic acid (vitamin C) (Sigma-Aldrich (Pty) Ltd, Aston Manor, South Africa) and H. natalensis, a 1 mg/ml stock solution of Quercetin, a 500 μg/ml stock solution of TEAVIGO™ and a synergistic compilation of H. natalensis (3.125 mg/ml), M. alternifolia (0.05% v/v), M. piperita (0.05% v/v) and TEAVIGO™ (2.5 mg/ml) were prepared.
In a 96 well ELISA plate, 20 μl of each sample was added to 200 μl dH2O (except for Quercetin which was added to 200 μl EtOH), serial dilutions were done. After which […] DPPH (Sigma-Aldrich (Pty) Ltd, Aston Manor, South Africa) dissolved in ethanol (40 μg/ml) were added to all wells. All samples were prepared in triplicate. […] The absorbance was measured in an ELISA plate reader at 515 nm (du Toit et al., 2001). […]

[4] = test system: Prevotella intermedia (ATCC 25611); assay: Microdilution MIC/MBC against Prevotella intermedia; format: cell-based; conditions: ATCC25611, Gram -ve
Experimental: as §1
(§5) The microdilution technique using 96-well micro-plates, as described by Eloff (1998) was used to obtain the MIC and MBC values of the crude extracts against the microorganisms under study. […]

[5] = test system: Streptococcus mutans (ATCC 25175); assay: Microdilution MIC/MBC against Streptococcus mutans; format: cell-based; conditions: ATCC25175, Gram +ve
Experimental: as §1, §5

in vitro = format: cell-based; conditions: African green monkey
Experimental: as §4

Cladosprium cucumerinum = conditions: Aurentiacin A isolated from Myrica serrate; cited from earlier work
Bacillus subtilis = conditions: Aurentiacin A isolated from Myrica serrate; cited from earlier work
E. coli = conditions: Aurentiacin A isolated from Myrica serrate; cited from earlier work
[6] = against Actinomyces israelii, NA = Not active, read-out: MBC of the isolated compounds
[7] = against Actinomyces israelii, read-out: MIC of the isolated compounds

Which results are given for Cardamomin [Cardamomin (2)]?
MIC of the isolated compounds ([1]; against Actinomyces israelii): >1000 µg/mL; 50% inhibition of cell growth IC50 + S.D. (HEp-2 cells): 52.12 ± 9.41 µg/mL

Which results are given for `C[C@@H]1[C@H](O)[C@@H](C)/C=C/C=C/C=C/C=C/C=C/C=C/C=C/[C@H](O[C@@H]2O[C@H](C)[C@@H](O)[C@H](N)[C@@H]2O)C[C@@H]2O[C@](O)(C[C@@H](O)C[C@@H](O)[C@H](O)CC[C@@H](O)C[C@@H](O)CC(=O)O[C@H]1C)C[C@H](O)[C@H]2C(=O)O` [Amphotericin B]?
MIC, C.a ([2]; Yeast): >0.2^c mg/ml; MBC, C.a (res) [3]: 0.013^c mg/ml; MIC, C.a (res) [3]: 0.013^c mg/ml

Which MBC [1, 6] does the source give for `O=c1c(O)c(-c2ccc(O)c(O)c2)oc2cc(O)cc(O)c12` [Quercetin (4), 3,3′,4′,5,7-pentahydroxyflavone] here?
The MBC was 1000 µg/mL.

What about the MIC [1, 7] of the same molecule?
Its MIC is 1000 µg/mL.

What about the “IC50 ± SD, 50% of DPPH that is inhibited” value (DPPH antioxidant assay) of the same molecule?
Its value is 0.415 ± 0.01095 µg/mL.

And the CC50 (HEp-2 cells)?
Its CC50 is 187 ± 42.6 µg/mL.

For `Cc1c2oc3c(C)ccc(C(=O)N[C@@H]4C(=O)N[C@H](C(C)C)C(=O)N5CCC[C@H]5C(=O)N(C)CC(=O)N(C)[C@@H](C(C)C)C(=O)O[C@@H]4C)c3nc-2c(C(=O)N[C@@H]2C(=O)N[C@H](C(C)C)C(=O)N3CCC[C@H]3C(=O)N(C)CC(=O)N(C)[C@@H](C(C)C)C(=O)O[C@@H]2C)c(N)c1=O` [Actinomycin D] (I: T[dV]P[Sar][NMeV] / II: T[dV]P[Sar][NMeV]; ester I:1-I:C, II:1-II:C; linker I:N-II:N via Actinocin(9to1)), which “50% inhibition of cell growth IC50 + S.D.” value (HEp-2 cells) is on record?
The value was 9.6 × 10^−3 ± 0.0003^c μg/ml.

And the “Cytotoxicity IC50, HEp-2” value (HEp-2 cells; XTT, 72 hours)?
Its value is 0.0085 µg/mL.

With `Oc1cc(O)c2c(c1)OC(c1ccccc1)C(O)C2` (stereo not drawn) [3,5,7-trihydroxyflavan (5), 3,5,7-Trihydroxyflavan] as the molecule, how does the MIC [1, 7] read?
The MIC was over 1000 µg/mL.

What about the “MIC of the isolated compounds” value ([1]; against Actinomyces israelii) of the same molecule?
Its value is over 1000 µg/mL.

And the CC50 (HEp-2 cells)?
Its CC50 is over 200 µg/mL.

With `[H]/N=C(\N/C(=N/[H])NCCCCCCNC(=N)NC(=N)Nc1ccc(Cl)cc1)Nc1ccc(Cl)cc1` [Chlorhexidine, chlorhexidine gluconate] as the molecule, how does the MBC ([2]; ATCC10231, Yeast) read?
The MBC was 293 µg/mL.

What about the MIC ([2]; ATCC10231, Yeast) of the same molecule?
The MIC was 352 µg/mL.

What about the MBC ([3]; Candida albicans) of the same molecule?
Its MBC is 293 µg/mL.

What about the MIC ([3]; Candida albicans) of the same molecule?
The MIC was 260 µg/mL.

And the MBC ([1]; Gram +ve, Actinomyces israelii, read-out: MBC, A.i)?
Its MBC is 39 µg/mL.

And the MIC ([1]; Gram +ve, Actinomyces israelii, read-out: MIC, A.i)?
The MIC was 33 µg/mL.

And the MBC [1, 6]?
The MBC was 24 µg/mL.

And the MIC [1, 7]?
The MIC was 24 µg/mL.

What about the MBC ([1]; Actinomyces israelii, fractions of the ethanolic extract, against A. israelii, Na = Not active, read-out: Average minimum bactericidal concentration (MBC) of the fractions) of the same molecule?
The MBC was 48.8 µg/mL.

And the MIC ([1]; Actinomyces israelii, fractions of the ethanolic extract, against A. israelii, read-out: Average minimum inhibitory concentration (MIC) of the fractions)?
Its MIC is 18.3 µg/mL.

And the MBC [4]?
Its MBC is 1040 µg/mL.

And the MIC [4]?
Its MIC is 260 µg/mL.

And the MBC [5]?
Its MBC is 415 µg/mL.

And the MIC [5]?
Its MIC is 61 µg/mL.

Which IC50 at 72 h (in vitro) does the source give for `COc1cccc2c1C(=O)c1c(O)c3c(c(O)c1C2=O)C[C@@](O)(C(=O)CO)C[C@@H]3O[C@H]1C[C@H](N)[C@H](O)[C@H](C)O1` [Doxorubicin, Doxorubicin HCl] here?
The IC50 at 72 h was 0.06 µg/mL.

For `COc1c(C)c(O)cc(O)c1C(=O)/C=C/c1ccccc1` [Aurentiacin A (1), 2′-Me ether derivative of 2′,4′,6′-trihydroxy-3′-methylchalcone], which growth inhibition (Cladosprium cucumerinum) is on record?
Its growth inhibition is “inhibits the growth”.

And the MBC [1, 6]?
The MBC was 62.5 µg/mL.

And the MIC [1, 7]?
Its MIC is 62.5 µg/mL.

What about the growth inhibition (Bacillus subtilis) of the same molecule?
The growth inhibition was “inhibits the growth”.

And the growth inhibition (E. coli)?
Its growth inhibition is “inhibits the growth”.

And the CC50 (HEp-2 cells)?
Its CC50 is 6.36 ± 5.09 µg/mL.

With `O=C1O[C@H]([C@@H](O)CO)C(O)=C1O` [Vitamin C, ascorbic acid] as the molecule, how does the “IC50 ± SD, 50% of DPPH that is inhibited” value (DPPH antioxidant assay) read?
Its value is 1.98 ± 0.006 µg/mL.
